Measured values taken from publication PMC6434083, “Identification and characterization of two types of amino acid-regulated acetyltransferases in actinobacteria” (Bioscience Reports, 2017).

Legend:
SvePatA [1] = molecular target: T1, SvePatA (Streptomyces venezuelae, UniProt F2RA54); assay: coupled NADH assay, initial rate; CD shift also seen with […] Asn; type: biochemical; settings: allosteric activator; co-substrates Ac-CoA and SveAcs
T1 construct: gene SVEN_0867; gene amplified from genomic DNA, pET-28a, E. coli BL21-DE3, purified; ACT-GNAT domains
T1 sequence (F2RA54 1-488): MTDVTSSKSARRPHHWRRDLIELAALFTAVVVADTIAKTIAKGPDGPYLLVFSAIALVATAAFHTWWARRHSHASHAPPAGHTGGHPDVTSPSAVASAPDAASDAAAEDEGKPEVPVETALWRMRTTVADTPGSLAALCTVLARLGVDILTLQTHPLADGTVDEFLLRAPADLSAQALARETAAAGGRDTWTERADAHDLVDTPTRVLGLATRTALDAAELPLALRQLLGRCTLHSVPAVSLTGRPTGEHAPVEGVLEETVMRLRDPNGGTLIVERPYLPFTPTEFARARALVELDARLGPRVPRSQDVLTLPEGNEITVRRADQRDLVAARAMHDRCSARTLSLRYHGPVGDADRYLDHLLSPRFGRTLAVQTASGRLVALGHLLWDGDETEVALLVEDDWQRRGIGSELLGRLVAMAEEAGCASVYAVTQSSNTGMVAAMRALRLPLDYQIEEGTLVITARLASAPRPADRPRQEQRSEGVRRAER

SvePatA [2] = molecular target: T2, SvePatA (Streptomyces venezuelae, UniProt F2RA54, K112A); assay: acetyltransferase activity with Asn; type: biochemical; settings: allosteric; co-substrates Ac-CoA and SveAcs
T2 construct: gene SVEN_0867; gene amplified from genomic DNA, pET-28a, E. coli BL21-DE3, purified; ACT-GNAT domains

AmiPatA = molecular target: T3, AmiPatA (Actinosynnema mirum, UniProt C6WC99); assay: coupled NADH assay, initial rate; CD shift also seen; type: biochemical; settings: allosteric activator, ACT domain; co-substrates Ac-CoA and AmiAcs
T3 construct: gene Amir_5672; gene amplified from genomic DNA, pET-28a, E. coli BL21-DE3, purified; ACT-GNAT domains
T3 sequence (C6WC99 1-372): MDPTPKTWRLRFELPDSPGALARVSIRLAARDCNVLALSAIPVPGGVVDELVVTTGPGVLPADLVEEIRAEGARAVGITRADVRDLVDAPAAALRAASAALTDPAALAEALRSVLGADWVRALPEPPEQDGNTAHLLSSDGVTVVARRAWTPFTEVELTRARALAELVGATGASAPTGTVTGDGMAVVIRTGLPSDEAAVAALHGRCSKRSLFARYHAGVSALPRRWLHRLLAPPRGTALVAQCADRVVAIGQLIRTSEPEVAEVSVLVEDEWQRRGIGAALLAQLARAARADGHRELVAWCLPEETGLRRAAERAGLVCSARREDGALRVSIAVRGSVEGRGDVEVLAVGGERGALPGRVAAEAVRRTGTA

purified protein = substrate: CC(=O)SCCNC(=O)CCNC(=O)[C@H](O)C(C)(C)COP(=O)(O)OP(=O)(O)OC[C@H]1O[C@@H](n2cnc3c(N)ncnc32)[C@H](O)[C@@H]1OP(=O)(O)O; assay: purified protein; type: biochemical, Actinosynnema mirum; settings: co-substrate AmiAcs; no Cys

T2 sequence (F2RA54 entry or part of it K112A): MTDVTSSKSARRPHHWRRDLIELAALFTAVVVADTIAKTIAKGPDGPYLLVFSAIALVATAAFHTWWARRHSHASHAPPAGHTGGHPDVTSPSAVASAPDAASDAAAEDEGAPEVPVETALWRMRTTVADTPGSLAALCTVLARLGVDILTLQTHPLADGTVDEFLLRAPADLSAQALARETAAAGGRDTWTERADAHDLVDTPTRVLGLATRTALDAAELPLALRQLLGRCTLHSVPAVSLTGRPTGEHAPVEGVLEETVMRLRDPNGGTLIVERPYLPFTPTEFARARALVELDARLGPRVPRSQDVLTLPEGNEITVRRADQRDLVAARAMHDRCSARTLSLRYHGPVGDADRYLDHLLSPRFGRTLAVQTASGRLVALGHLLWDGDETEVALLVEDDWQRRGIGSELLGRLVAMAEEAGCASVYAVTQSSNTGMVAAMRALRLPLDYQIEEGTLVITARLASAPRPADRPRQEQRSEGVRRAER

## NC(=O)C[C@H](N)C(=O)O [Asn]
SvePatA [1]
  % of initial rate without Asn (2.23 to 3.92 nmol NADH per min/ml): 176%
SvePatA [2]
  activation still observed: Allosteric effect of Asn on SvePatA activity was still observed in two mutants K112A

## N[C@@H](CS)C(=O)O [Cys]
AmiPatA
  % of initial rate without Cys (3.8 to 6.8 μM/min): 179%

B1: AmiPatA (Actinosynnema mirum DSM 43827) (protein)
chain: MDPTPKTWRLRFELPDSPGALARVSIRLAARDCNVLALSAIPVPGGVVDELVVTTGPGVLPADLVEEIRAEGARAVGITRADVRDLVDAPAAALRAASAALTDPAALAEALRSVLGADWVRALPEPPEQDGNTAHLLSSDGVTVVARRAWTPFTEVELTRARALAELVGATGASAPTGTVTGDGMAVVIRTGLPSDEAAVAALHGRCSKRSLFARYHAGVSALPRRWLHRLLAPPRGTALVAQCADRVVAIGQLIRTSEPEVAEVSVLVEDEWQRRGIGAALLAQLARAARADGHRELVAWCLPEETGLRRAAERAGLVCSARREDGALRVSIAVRGSVEGRGDVEVLAVGGERGALPGRVAAEAVRRTGTA
notes: gene amplified from genomic DNA, pET-28a, E. coli BL21-DE3, purified; ACT-GNAT domains
Purified protein
  Km: 5.5 ± 1.1 µM
  kcat: 0.19 ± 0.008 s⁻¹
  kcat/Km: 36000 ± 8000 M⁻¹ s⁻¹
